Assay results: patent publication US8846704B2, “Thiopyrimidine-based compounds and uses thereof” (YM Biosciences Austraila Pty Ltd, priority 2007, dated 2014)

What was measured:
Assay type in all cases: biochemical
[1] = biological target: T1, human JAK2 (Homo sapiens, UniProt O60674); test: Alphascreen tyrosine kinase enzyme assay, JAK2 kinase domain; conditions: read-out: JAK2 IC50_nM
T1 construct: The kinase domain of human JAK2 was amplified; GST (N); made in house; host or cells: Sf9 insect cells (baculovirus)
Method: (§1) For screening purposes, compounds (in 100% DMSO) were warmed at 37 degrees for at least 20 minutes before use. A […] stock was initially made in assay buffer, where the final concentration of DMSO was 0.3%. The stocks were then diluted in 384 well Optiplates (Packard) where the final concentration of the compound was […].
The kinase domain of human JAK2 was amplified from U937mRNA using the polymerase chain reaction with the following primers: […]
The JAK2 PCR products were cloned into the pDest20 destination vector (Gibco). The JAK2 plasmid was then transformed into competent DH10Bac cells (Gibco), and the recombinant baculovirus was prepared via Sf9 insect cell transfection.
(§2) Baculovirus preparations from each of the constructs were infected into either one or five liters of Sf9 cells (Invitrogen) grown in SF-900 medium (Invitrogen) to a cell density of approximately 1-2×10^6 cells/ml. Cells were infected with virus at a MOI of 0.8-3.0. Cells were harvested and lysed. Tyrosine kinase domains were purified by affinity chromatography on a glutathione-agarose column (Scientifix Pty. Ltd. catalog #: GSH-200).
(§3) Kinase assays were performed in 384 well Optiplates (Packard) using an Alphascreen Protein Tyrosine Kinase PY100 detection kit The compounds were pre-incubated with affinity purified PTK domain in the presence of phosphotyrosine assay buffer (10 mM HEPES, pH 7.5, 100 mM MgCl2, 25 mM NaCl, […] and 0.1% Tween 20) for 20 minutes. The compounds were then incubated with substrate in the presence of ATP. The substrate used was susbtrate-1 with the sequence biotin-EGPWLEEEEEAYGWMDF-NH2 [SEQ. ID. NO. 13] (final concentration […]). For HCK 80 μm ATP was used and incubated for 60 minutes. Alphascreen phosphotyrosine acceptor beads followed by streptavidin donor beads at a concentration of 1/100 in stop buffer were added to each well under subdued light and incubated for 2-3 hours., The Alphascreen plates were read on a Packard Fusion Alpha instrument.

[2] = biological target: T2, human JAK3 (Homo sapiens, UniProt P52333); test: Alphascreen tyrosine kinase enzyme assay, JAK3 kinase domain; conditions: read-out: JAK3 IC50_nM
T2 construct: The kinase domain of human JAK3 was amplified; GST (N); made in house; host or cells: Sf9 insect cells (baculovirus)
Method: as §1
The kinase domain of human JAK3 was amplified from U937mRNA using the polymerase chain reaction with the following primers: […]
The JAK3 PCR products were cloned into the pDest20 destination expression vector (Gibco). The JAK3 plasmid was then transformed into competent DH10Bac cells (Gibco), and the recombinant baculovirus was prepared via Sf9 insect cell transfection.
as §2, §3

[3] = biological target: T3, Blk(m) (Mus musculus, UniProt P16277); test: Upstate KinaseProfiler enzyme assay, Blk; conditions: 500 nM compound; read-out: Percent inhibition at 500 nM Blk(m)
T3 construct: purchased Upstate Biotechnology (Dundee, UK), KinaseProfiler service
Method: (§4) Further enzyme assays were conducted at Upstate Biotechnology (Dundee, UK) in the KinaseProfiler™ Assay system.
(§5) The general protocol is as follows. All kinases are pre-diluted to a 10× working concentration prior to addition into the assay. The composition of the dilution buffer for the kinases is 20 mM MOPS pH 7.0, 1 mM EDTA, 0.1% β-mercaptoethanol, 0.01% Brij-35, 5% glycerol, 1 mg/ml BSA. All substrates are dissolved and diluted to working stocks in de-ionised water.

[4] = biological target: T4, Bmx(h) (Homo sapiens, UniProt P51813); test: Upstate KinaseProfiler enzyme assay, Bmx; conditions: 500 nM compound; read-out: Percent inhibition at 500 nM Bmx(h)
T4 construct: purchased Upstate Biotechnology (Dundee, UK), KinaseProfiler service
T4 sequence (P51813 1-675): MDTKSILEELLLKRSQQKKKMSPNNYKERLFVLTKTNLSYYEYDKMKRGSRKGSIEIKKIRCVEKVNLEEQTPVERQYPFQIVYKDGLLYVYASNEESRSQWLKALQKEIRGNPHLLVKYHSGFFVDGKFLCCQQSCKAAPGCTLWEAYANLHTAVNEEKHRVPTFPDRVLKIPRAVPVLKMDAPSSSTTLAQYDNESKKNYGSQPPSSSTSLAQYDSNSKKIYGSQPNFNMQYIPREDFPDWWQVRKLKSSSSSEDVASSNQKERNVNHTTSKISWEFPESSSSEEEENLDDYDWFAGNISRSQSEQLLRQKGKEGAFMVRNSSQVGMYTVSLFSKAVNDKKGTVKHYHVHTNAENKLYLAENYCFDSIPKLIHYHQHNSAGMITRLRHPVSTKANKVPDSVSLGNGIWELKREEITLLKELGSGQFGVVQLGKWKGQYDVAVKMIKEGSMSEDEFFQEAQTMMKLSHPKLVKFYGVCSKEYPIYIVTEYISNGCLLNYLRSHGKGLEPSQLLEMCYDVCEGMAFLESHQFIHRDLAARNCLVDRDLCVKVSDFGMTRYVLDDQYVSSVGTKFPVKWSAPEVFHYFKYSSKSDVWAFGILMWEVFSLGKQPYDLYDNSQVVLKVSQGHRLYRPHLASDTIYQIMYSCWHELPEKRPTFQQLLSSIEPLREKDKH
Method: as §4, §5

[5] = biological target: T5, Flt 1(h) (Homo sapiens, UniProt P17948); test: Upstate KinaseProfiler enzyme assay, Flt 1; conditions: 500 nM compound; read-out: Percent inhibition at 500 nM Flt 1(h)
T5 construct: purchased Upstate Biotechnology (Dundee, UK), KinaseProfiler service
Method: as §4, §5

[6] = biological target: T6, Flt 4(h) (Homo sapiens, UniProt P35916); test: Upstate KinaseProfiler enzyme assay, Flt 4; conditions: 500 nM compound; read-out: Percent inhibition at 500 nM Flt 4(h)
T6 construct: purchased Upstate Biotechnology (Dundee, UK), KinaseProfiler service
Method: as §4, §5

[7] = biological target: T7, KDR(h) (Homo sapiens, UniProt P35968); test: Upstate KinaseProfiler enzyme assay, KDR; conditions: 500 nM compound; read-out: Percent inhibition at 500 nM KDR(h)
T7 construct: purchased Upstate Biotechnology (Dundee, UK), KinaseProfiler service
Method: as §4, §5

[8] = biological target: T8, Human hemopoietic cell protein-tyrosine kinase (HCK) (Homo sapiens, UniProt P08631); test: Alphascreen tyrosine kinase enzyme assay, HCK kinase domain; conditions: read-out: FMS, FLT3, or HCK IC50_nM (HCK)
T8 construct: GST (N); made in house; host or cells: Sf9 insect cells (baculovirus)
Method: as §1
The kinase domain of Human hemopoietic cell protein-tyrosine kinase (HCK) between L212 and P505 (accession number M16592) was amplified from U937 mRNA using the polymerase chain reaction.
The PCR product was cloned into the pDest20 destination vector (Gibco). The plasmid was then transformed into competent […] cells (Gibco) to produce a HCK bacmid. The recombinant baculovirus was prepared via Sf9 insect cell transfection with bacmid DNA.
as §2, with “GSH-200). […]” for “GSH-200).”

[9] = biological target: T9, human CSF1-R (FMS) (Homo sapiens, UniProt P07333); test: Alphascreen tyrosine kinase enzyme assay, CSF-1R (FMS) kinase domain; conditions: read-out: FMS, FLT3, or HCK IC50_nM (FMS)
T9 construct: from codon I553 to Q961; GST (N); made in house; host or cells: Sf9 insect cells (baculovirus)
T9 sequence (P07333 553-961): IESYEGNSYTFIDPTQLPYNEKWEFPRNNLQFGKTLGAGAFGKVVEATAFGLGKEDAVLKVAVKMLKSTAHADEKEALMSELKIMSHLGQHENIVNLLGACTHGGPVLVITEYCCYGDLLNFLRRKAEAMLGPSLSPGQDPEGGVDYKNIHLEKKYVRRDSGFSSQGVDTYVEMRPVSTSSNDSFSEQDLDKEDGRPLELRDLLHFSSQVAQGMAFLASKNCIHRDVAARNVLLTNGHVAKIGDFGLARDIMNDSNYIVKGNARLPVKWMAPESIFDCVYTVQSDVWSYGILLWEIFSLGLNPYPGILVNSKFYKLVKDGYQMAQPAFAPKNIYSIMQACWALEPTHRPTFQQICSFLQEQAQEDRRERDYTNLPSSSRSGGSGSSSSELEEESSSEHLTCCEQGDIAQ
Method: as §1
The kinase domain of human CSF1-R from codon I553 to Q961 was cloned into the pDest20 expression vector (Invitrogen). The CSF1-R plasmid was then transformed into competent DH10Bac cells (Gibco), and the recombinant baculovirus produced prepared for transfection into Sf9 insect cells.
as §2, §3

[10] = biological target: T10, BTK(h) (Homo sapiens, UniProt Q06187); test: Upstate KinaseProfiler enzyme assay, BTK; conditions: 500 nM compound; read-out: Percent inhibition at 500 nM BTK(h)
T10 construct: purchased Upstate Biotechnology (Dundee, UK), KinaseProfiler service
Method: as §4, §5

T3 sequence (P16277 whole entry): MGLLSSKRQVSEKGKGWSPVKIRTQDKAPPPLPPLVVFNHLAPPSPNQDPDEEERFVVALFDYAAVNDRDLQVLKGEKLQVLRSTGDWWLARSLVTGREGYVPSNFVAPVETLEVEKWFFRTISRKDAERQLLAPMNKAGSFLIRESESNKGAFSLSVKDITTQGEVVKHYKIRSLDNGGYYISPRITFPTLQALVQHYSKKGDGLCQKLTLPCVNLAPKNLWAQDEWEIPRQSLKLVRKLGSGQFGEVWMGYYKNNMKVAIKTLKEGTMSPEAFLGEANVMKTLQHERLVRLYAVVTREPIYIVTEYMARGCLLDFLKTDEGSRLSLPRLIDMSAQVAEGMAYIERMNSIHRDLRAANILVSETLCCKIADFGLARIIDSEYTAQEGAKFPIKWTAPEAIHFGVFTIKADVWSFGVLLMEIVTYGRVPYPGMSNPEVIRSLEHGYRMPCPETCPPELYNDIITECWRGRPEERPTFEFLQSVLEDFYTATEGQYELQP
T7 sequence (P35968 20-1356): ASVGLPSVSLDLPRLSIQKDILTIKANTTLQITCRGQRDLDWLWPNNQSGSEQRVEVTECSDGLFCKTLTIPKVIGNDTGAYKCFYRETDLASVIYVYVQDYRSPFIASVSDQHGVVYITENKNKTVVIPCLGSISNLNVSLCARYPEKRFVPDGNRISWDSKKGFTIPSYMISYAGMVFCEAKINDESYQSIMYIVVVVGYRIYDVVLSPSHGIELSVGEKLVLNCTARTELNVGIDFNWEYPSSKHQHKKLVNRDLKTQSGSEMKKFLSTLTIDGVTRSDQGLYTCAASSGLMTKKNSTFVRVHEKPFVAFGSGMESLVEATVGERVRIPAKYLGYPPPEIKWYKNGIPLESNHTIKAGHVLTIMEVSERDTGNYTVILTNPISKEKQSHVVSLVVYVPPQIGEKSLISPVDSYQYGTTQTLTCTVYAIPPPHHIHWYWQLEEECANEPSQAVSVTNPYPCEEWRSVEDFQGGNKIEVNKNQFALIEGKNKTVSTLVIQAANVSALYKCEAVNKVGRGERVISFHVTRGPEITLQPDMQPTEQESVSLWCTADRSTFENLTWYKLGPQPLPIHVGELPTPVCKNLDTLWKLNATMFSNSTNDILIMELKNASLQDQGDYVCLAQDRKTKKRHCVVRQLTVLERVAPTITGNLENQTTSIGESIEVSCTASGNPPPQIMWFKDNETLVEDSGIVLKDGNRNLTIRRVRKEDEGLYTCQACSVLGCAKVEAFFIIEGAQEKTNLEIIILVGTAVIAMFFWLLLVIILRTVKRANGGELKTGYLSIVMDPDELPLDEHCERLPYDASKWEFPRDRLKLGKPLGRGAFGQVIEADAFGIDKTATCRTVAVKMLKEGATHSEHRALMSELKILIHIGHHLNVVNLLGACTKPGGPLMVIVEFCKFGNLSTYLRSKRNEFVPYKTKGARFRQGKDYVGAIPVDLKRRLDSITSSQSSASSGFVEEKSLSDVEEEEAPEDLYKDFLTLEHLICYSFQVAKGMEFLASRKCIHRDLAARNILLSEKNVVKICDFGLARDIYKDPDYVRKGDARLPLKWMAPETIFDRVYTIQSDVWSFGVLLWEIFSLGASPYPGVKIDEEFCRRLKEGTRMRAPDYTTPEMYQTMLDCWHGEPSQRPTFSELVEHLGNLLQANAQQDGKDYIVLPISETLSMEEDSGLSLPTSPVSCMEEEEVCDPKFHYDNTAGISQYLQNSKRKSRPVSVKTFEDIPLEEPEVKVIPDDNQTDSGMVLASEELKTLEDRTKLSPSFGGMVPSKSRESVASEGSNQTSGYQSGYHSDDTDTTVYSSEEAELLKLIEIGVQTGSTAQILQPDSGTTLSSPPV
T1 sequence (O60674 849-1124 limits assumed): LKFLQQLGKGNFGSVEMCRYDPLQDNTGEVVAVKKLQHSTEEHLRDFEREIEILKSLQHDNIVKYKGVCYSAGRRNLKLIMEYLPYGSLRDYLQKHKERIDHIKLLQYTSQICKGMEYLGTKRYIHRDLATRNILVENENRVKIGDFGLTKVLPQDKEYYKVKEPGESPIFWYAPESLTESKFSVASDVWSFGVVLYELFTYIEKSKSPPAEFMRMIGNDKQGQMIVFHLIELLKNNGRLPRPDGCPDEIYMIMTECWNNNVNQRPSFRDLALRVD
T6 sequence (P35916 25-1363): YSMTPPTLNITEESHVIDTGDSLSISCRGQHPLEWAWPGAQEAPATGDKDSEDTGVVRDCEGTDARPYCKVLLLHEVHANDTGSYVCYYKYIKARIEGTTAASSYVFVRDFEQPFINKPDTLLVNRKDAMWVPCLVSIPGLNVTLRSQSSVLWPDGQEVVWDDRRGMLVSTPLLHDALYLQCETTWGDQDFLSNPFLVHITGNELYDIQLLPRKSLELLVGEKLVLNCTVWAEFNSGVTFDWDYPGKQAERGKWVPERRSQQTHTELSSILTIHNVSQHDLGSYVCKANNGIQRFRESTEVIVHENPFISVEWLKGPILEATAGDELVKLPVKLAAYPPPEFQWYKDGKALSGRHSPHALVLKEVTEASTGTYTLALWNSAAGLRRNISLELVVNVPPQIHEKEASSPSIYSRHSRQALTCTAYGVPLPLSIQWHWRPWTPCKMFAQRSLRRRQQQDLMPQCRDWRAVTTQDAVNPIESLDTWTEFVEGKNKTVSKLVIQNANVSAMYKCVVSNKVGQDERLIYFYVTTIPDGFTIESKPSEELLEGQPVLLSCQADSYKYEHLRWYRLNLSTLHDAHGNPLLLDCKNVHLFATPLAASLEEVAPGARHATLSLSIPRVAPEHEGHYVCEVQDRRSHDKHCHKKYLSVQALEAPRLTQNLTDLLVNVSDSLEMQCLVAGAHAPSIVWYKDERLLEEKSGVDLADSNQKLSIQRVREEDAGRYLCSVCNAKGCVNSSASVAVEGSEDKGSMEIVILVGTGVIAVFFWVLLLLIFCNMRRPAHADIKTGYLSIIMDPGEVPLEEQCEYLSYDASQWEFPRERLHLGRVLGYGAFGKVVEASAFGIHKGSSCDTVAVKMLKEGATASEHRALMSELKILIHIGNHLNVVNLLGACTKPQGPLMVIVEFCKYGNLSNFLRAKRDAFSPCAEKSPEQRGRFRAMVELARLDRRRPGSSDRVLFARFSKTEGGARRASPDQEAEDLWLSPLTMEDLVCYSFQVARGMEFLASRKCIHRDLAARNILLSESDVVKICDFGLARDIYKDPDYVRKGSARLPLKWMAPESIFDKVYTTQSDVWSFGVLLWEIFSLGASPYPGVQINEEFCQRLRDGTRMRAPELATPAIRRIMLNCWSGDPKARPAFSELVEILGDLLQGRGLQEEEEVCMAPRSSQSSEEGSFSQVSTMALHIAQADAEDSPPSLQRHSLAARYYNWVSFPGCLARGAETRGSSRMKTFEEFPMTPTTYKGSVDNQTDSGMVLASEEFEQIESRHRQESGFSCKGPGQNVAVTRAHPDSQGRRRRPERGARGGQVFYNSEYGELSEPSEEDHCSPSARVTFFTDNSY
T10 sequence (Q06187 whole entry): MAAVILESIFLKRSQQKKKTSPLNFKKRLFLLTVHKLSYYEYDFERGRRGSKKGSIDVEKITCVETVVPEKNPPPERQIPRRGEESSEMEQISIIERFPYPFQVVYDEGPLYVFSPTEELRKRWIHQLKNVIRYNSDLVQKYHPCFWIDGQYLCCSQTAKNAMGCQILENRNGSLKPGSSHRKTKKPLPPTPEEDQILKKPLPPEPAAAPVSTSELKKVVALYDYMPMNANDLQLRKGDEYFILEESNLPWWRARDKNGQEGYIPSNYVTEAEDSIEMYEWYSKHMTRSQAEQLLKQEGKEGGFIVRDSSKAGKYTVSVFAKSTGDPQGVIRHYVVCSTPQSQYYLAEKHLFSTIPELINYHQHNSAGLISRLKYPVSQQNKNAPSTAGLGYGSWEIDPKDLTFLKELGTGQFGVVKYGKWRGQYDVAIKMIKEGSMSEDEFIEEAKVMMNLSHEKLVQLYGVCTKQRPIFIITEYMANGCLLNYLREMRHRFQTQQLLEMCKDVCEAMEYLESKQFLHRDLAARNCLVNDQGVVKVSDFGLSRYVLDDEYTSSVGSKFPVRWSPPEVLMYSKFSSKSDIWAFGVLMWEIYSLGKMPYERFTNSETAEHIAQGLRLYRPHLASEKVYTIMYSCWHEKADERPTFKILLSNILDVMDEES
T2 sequence (P52333 822-1111 limits assumed): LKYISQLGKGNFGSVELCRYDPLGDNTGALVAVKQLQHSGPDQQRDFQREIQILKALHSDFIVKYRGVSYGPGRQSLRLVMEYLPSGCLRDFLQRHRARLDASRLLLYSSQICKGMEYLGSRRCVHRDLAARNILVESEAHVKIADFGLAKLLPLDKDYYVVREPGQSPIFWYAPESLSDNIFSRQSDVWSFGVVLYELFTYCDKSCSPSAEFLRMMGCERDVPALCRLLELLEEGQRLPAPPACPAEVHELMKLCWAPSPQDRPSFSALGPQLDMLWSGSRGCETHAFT
T8 sequence (P08631 233-526): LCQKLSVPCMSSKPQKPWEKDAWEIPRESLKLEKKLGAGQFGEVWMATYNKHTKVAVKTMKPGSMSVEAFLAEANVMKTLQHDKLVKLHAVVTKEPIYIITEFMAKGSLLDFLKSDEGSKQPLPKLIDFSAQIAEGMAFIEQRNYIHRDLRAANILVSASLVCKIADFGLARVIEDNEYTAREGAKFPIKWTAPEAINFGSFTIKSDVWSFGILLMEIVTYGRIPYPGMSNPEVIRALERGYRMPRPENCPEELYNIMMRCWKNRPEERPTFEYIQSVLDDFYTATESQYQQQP

Q: Which results are given for `C=CC(=O)N1CCc2cc(Sc3nc(Nc4ccc(N5CCOCC5)cc4)ncc3C)ccc21` [Compound 170, 1-(5-(5-methyl-2-(4-morpholinophenylao)pyrimidin-4-ylthio)indolin-1-yl)prop-2-en-1-one]?
A: IC50 [1]: > 1000 nM; IC50 [2]: < 100 nM; inhibition at 0.5 µM [3]: 96%; inhibition at 0.5 µM [4]: 97%; inhibition at 0.5 µM [5]: 74%; inhibition at 0.5 µM [6]: 99%; inhibition at 0.5 µM [7]: 97%

Q: Which IC50 [1] does the source give for `C=CC(=O)N1CCCc2cc(Sc3nc(Nc4ccc(N5CCOCC5)cc4)ncc3C)ccc21` [Compound 168, 1-(6-(5-methyl-2-(4-morpholinophenylao)pyrimidin-4-ylthio)-3,4-dihydroquinolin-1(2H)-yl)prop-2-en-1-one] here?
A: The IC50 was > 1000 nM.

Q: And the IC50 [2]?
A: Its IC50 is < 100 nM.

Q: And the inhibition at 0.5 µM [3]?
A: Its inhibition at 0.5 µM is 98%.

Q: What about the inhibition at 0.5 µM [4] of the same molecule?
A: Its inhibition at 0.5 µM is 92%.

Q: What about the inhibition at 0.5 µM [5] of the same molecule?
A: The inhibition at 0.5 µM was 66%.

Q: What about the inhibition at 0.5 µM [6] of the same molecule?
A: Its inhibition at 0.5 µM is 99%.

Q: And the inhibition at 0.5 µM [7]?
A: The inhibition at 0.5 µM was 96%.

Q: What does the source list for `Oc1cccc(Sc2ccnc(Nc3ccc(N4CCOCC4)cc3)n2)c1` [Compound 38, 3-(2-(4-morpholinophenylao)pyrimidin-4-ylthio)phenol]?
A: IC50 [8]: < 500 nM; IC50 [9]: < 500 nM

Q: `C=CC(=O)Nc1cccc(Sc2ccnc(Nc3cc(OC)c(OC)c(OC)c3)n2)c1` [Compound 51, N-(3-(2-(3,4,5-trimethoxyphenylamino)pyrimidin-4-ylthio)phenyl)acrylamide] was tested. Which inhibition at 0.5 µM [3] did it give?
A: The inhibition at 0.5 µM was 29%.

Q: What about the inhibition at 0.5 µM [4] of the same molecule?
A: Its inhibition at 0.5 µM is 100%.

Q: What about the inhibition at 0.5 µM [10] of the same molecule?
A: Its inhibition at 0.5 µM is 100%.

Q: What about the inhibition at 0.5 µM [7] of the same molecule?
A: Its inhibition at 0.5 µM is 100%.

Q: Which results are given for `O=C(CCNc1ccccc1)Nc1ccc(Sc2ccnc(Nc3ccccc3)n2)cc1` [Compound 351, 3-(phenylao)-N-(4-(2-(phenylao)pyrimidin-4-ylthio)phenyl)propanamide]?
A: inhibition at 0.5 µM [3]: 100%; inhibition at 0.5 µM [4]: 100%; inhibition at 0.5 µM [10]: 100%; inhibition at 0.5 µM [7]: 100%
